# Results from patent US20100184790A1, “PYRROLO[2,3-B]PYRIDINE COMPOUNDS, AZAINDOLE COMPOUNDS USED FOR SYNTHESIZING SAID PYRROLO[2,3-B]PYRIDINE COMPOUNDS, METHODS FOR THE PRODUCTION THEREOF, AND USES THEREOF” (CENTRE NATIONAL DE LA RECHERCHE SCIENTIFIQUE, priority 2007, published 2010).
# Read-outs that look alike come from different tables or passages of the source.
# What was measured:
# SH-SY5Y cells = test: Cell survival, MTS reduction, SH-SY5Y; format: cell-based; settings: Homo sapiens
# Experimental: The human neuroblastoma cell line SH-SY5Y was grown in a DMEM medium with L-glutamine originating from Invitrogen (Cergy Pontoise, France), antibiotics and 10% by volume of FCS originating from Invitrogen. […] These compounds were also tested at various concentrations with regard to their effects on SH-SY5Y and HEK293 cells. […] The IC50 values were calculated from the dose-response curves and are given in micromoles (mean±standard deviation of two independent measurements carried out in triplicate). […] The survival of the cells was estimated by the assaying of the degree of reduction of MTS induced by this exposure. […] The ICS© values were calculated from dose-response curves and are given in micromoles in table 3 below.
# DYRK1A = DYRK1A (Rattus norvegicus, UniProt Q63470); test: DYRK1A kinase assay (myelin basic protein); format: biochemical; settings: 15 μM ATP, 30° C., myelin basic protein; read-out: IC50 DYRK1A
# protein kinase hSGK1 = molecular target: T1, protein kinase hSGK1 (Homo sapiens, UniProt O00141); settings: from Angew. Chem. Int. Ed., 2005, 44, 6951-6956; cited from earlier work
# T1 sequence (O00141 1-431): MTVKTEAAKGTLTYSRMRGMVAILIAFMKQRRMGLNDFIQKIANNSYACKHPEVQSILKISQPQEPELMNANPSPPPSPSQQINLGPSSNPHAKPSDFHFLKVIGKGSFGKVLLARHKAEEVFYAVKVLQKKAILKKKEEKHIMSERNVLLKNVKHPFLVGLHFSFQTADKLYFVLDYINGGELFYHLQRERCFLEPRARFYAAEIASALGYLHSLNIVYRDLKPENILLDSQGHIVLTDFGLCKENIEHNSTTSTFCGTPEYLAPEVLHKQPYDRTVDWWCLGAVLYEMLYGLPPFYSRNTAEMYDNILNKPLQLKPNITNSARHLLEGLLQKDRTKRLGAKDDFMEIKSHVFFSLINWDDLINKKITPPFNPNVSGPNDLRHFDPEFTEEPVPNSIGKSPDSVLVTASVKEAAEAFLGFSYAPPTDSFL
# Huh7 (hepatoma) = test: Cell survival, MTS reduction, Huh7; format: cell-based; settings: Homo sapiens, Huh-7; forty eight hours after addition; read-out: Survival of the cells (IC50, μM) (MTS reduction) Huh7 (hepatoma)
# Experimental: (§1) The viability of the cells was determined by measuring the reduction of 3-(4,5-dimethylthiazol-2-yl)-5-(3-carboxymethoxyphenyl)-2-(4-sulfophenyl)-2H/tetrazolium (MTS). The procedure was such as described in detail in Ribas J. et al., 2004, “Cell differentiation, caspase inhibition, and macromolecular synthesis blockage, but not BCL-2 or BCL-XL proteins, protect SH-SYS5 cells from apoptosis triggered by two CDK inhibitory drugs”, Exp. Cell Res., 2004, 195, 9-24.
# (§2) The effects of meriolins 2 and 3 on the survival of various cell lines were also tested at various concentrations in order to determine their effects on eight different cell lines. The survival of the cells was expressed forty eight hours after the addition of each meriolin, using the MTS reduction test. The ICS© values were calculated from dose-response curves and are given in micromoles in table 3 below.
# GSK-3α/β = GSK-3α/β kinase assay (GS-1 peptide); format: biochemical, porcine; settings: 15 μM ATP, 30° C.
# Experimental: After incubating at 30° C. for 30 (thirty) minutes, the 25 μl aliquots of the supernatant were treated as described above.
# HCT116 (colon) = test: Cell survival, MTS reduction, HCT116; format: cell-based; settings: Homo sapiens, HCT-116; forty eight hours after addition; read-out: Survival of the cells (IC50, μM) (MTS reduction) HCT116 (colon)
# Experimental: as §1, §2
# CDK1/cyclin B = CDK1/cyclin B kinase assay (histone H1, [γ-33P]-ATP); settings: read-out: IC50 CDK1/cyclin B, 15 μM ATP, 30° C.
# MDA-MB-231 (breast) = test: Cell survival, MTS reduction, MDA-MB-231; format: cell-based; settings: Homo sapiens, forty eight hours after addition, read-out: Survival of the cells (IC50, μM) (MTS reduction) MDA-MB-231 (breast)
# Experimental: as §1, §2
# [1] = system: Human foreskin fibroblasts; test: Cell survival, MTS reduction, human foreskin fibroblasts; format: cell-based; settings: Fibroblast, forty eight hours after addition, read-out: Survival of the cells (IC50, μM) (MTS reduction) Human foreskin fibroblasts
# Experimental: as §1, §2
# PC3 (prostate) = test: Cell survival, MTS reduction, PC3; format: cell-based; settings: forty eight hours after addition; read-out: Survival of the cells (IC50, μM) (MTS reduction) PC3 (prostate)
# Experimental: as §1, §2
# F1 (hepatoma) = test: Cell survival, MTS reduction, F1; format: cell-based; settings: forty eight hours after addition; read-out: Survival of the cells (IC50, μM) (MTS reduction) F1 (hepatoma)
# Experimental: as §1, §2
# CK1δ/ε = CK1δ/ε kinase assay (CK1-specific peptide); format: biochemical, porcine; settings: 15 μM ATP, 30° C.
# Experimental: CK1δ/ε was purified from porcine brain by affinity chromatography on an immobilized axin fragment. It was assayed as described for CDK1 but using a CK1-specific peptide substrate.
# [2] = system: HEK293 (embryonic kidney); test: Cell survival, MTS reduction, HEK293; format: cell-based; settings: Homo sapiens, forty eight hours after addition, read-out: Survival of the cells (IC50, μM) (MTS reduction) HEK293 (embryonic kidney)
# Experimental: The HEK293 cells were grown in an MEM medium with Glutamax originating from Invitrogen, antibiotics and 10% by volume of FCS.
# as §1
# The effects of meriolins 2 and 3 on the survival of various cell lines were also tested at various concentrations in order to determine their effects on eight different cell lines. […] The ICS© values were calculated from dose-response curves and are given in micromoles in table 3 below.
# A4573 cells xenograft = test: In vivo antitumor activity, A4573 xenograft; parameters: species or system athymic male nude mice; settings: 50 mg/kg intraperitoneal once daily, versus control
# Experimental: Athymic male nude mice (aged from 5 to 6 weeks) were obtained from the National Cancer Institute. The mice were housed in the animal facility of the Division of Comparative Medicine of Georgetown University. All the studies on the animals were carried out under protocols approved by the Animal Care and Use Committee of Georgetown University. The mice were inoculated by subcutaneous injection into the right posterior flank with 4×10^6 A4573 cells in 100 μl of Matrigel basic membrane matrix (Becton Dickinson). Xenografts were grown to a mean tumor volume of 129±30 mm^3. The compounds tested were first dissolved in either absolute methanol or DMSL (1 volume). A carrier solution was produced using a diluent containing 10% Tween 80, 20% N—N-dimethylacetamide and 70% polyethylene glycol 400 (Fisher Scientific, Pittsburgh, Pa.). The mice were randomly divided into two groups (six animals per group) and the treatment was initiated. […] At these times, the tumors were removed, measured and prepared for TUNEL assays. The primary tumor volumes were calculated by the formula V=(1/2)a×b^2, where a is the longest tumor axis and b is the shortest tumor axis. The values are given in the form of mean±standard deviation values in quantitative experiments. […]
# [3] = 8 h, Table 3, forty eight hours after addition, read-out: Survival of the cells (IC50, μM) (MTS reduction) SH-SY5Y (neuroblastoma)
# [4] = Table 2, exposed for 24 hours, read-out: IC50 survival of SH-SY5Y cells (MTS reduction)
IC50 (DYRK1A) [nM],IC50 (GSK-3α/β) [nM],IC50 (CDK1/cyclin B) [nM],IC50 (CK1δ/ε) [nM],Structure (SMILES),"IC50 (SH-SY5Y cells; 24 h, read-out: IC50 survival of SH-SY5Y cells (MTS reduction)) [µM]",IC50 (protein kinase hSGK1) [nM],IC50 (Huh7 (hepatoma)) [µM],IC50 (SH-SY5Y cells; [3]) [µM],IC50 (SH-SY5Y cells; [4]) [µM],IC50 (HCT116 (colon)) [µM],IC50 (MDA-MB-231 (breast)) [µM],IC50 [1] [µM],IC50 (PC3 (prostate)) [µM],IC50 (F1 (hepatoma)) [µM],IC50 [2] [µM],mean tumor volume over time (FIG. 3) (A4573 cells xenograft)
35,400,57,50,"Nc1nccc(-c2c[nH]c3nccc(O)c23)n1 [Meriolin 2, 3-[(2-amino)pyrimidin-4-yl]-4-hydroxy-1H-pyrrolo[2,3-b]pyridine]",–,–,1,0.41,0.41,0.08,1.8,20,17.3,2,2.6,–
29,230,170,200,"COc1ccnc2[nH]cc(-c3ccnc(N)n3)c12 [Meriolin 3, 3-[(2-amino)pyrimidin-4-yl]-4-methoxy-1H-pyrrolo[2,3-b]pyridine]",–,–,0.12,0.072,0.073,0.94,19,8,95,0.26,0.38,only increases slightly over time

Structure (SMILES),IC50 (DYRK1A) [nM],IC50 (GSK-3α/β) [nM],IC50 (CDK1/cyclin B) [nM],IC50 (CK1δ/ε) [nM],"IC50 (SH-SY5Y cells; 24 h, read-out: IC50 survival of SH-SY5Y cells (MTS reduction)) [µM]",IC50 (protein kinase hSGK1) [nM],IC50 (Huh7 (hepatoma)) [µM],IC50 (SH-SY5Y cells; [3]) [µM],IC50 (SH-SY5Y cells; [4]) [µM],IC50 (HCT116 (colon)) [µM],IC50 (MDA-MB-231 (breast)) [µM],IC50 [1] [µM],IC50 (PC3 (prostate)) [µM],IC50 (F1 (hepatoma)) [µM],IC50 [2] [µM],mean tumor volume over time (FIG. 3) (A4573 cells xenograft)
"Nc1nccc(-c2c[nH]c3ncccc23)n1 [Meriolin 1, 3-[(2-amino)pyrimidin-4-yl]-1H-pyrrolo[2,3-b]pyridine, reference compound]",130,–,–,–,0.67,2400,–,–,–,–,–,–,–,–,–,–
